In US20250059205A1, “Heterocyclic Compounds and Methods of Use” (AMGEN INC., priority 2021, published 2025):

What was measured:
[1] = tested on: Phosphorylation of ERK1/2 in AsPC-1 cells; assay: Phospho-ERK1/2 MSD Assay (AsPC-1 cells); format: cell-based; conditions: Homo sapiens, ASPC1, 2 h, 2 hours treatment, read-out: p-ERK (AsPC-1 cells) IC50
Method in brief: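 Read-out: MSD electrochemiluminescent detection of phosphorylated ERK1/2 in whole-cell lysates, fitted to a 4-parameter logistic curve for IC50. Prior to lysis, AsPC-1 cells (25,000 per well) received a 2 h compound dose-response at 37 °C.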

[2] = molecular target: GDP-bound KRAS protein (aa 1-169), containing both G12D and C118A amino acid substitutions (Homo sapiens, UniProt P01116, C118A/G12D); assay: KRAS G12D Coupled Nucleotide Exchange Assay; format: biochemical; conditions: 2 h compound pre-incubation
Method: Following compound pre-incubation, purified SOS protein (aa 564-1049) and GTP (Roche 10106399001) were added to the assay wells and incubated for an additional 30 min. […] The assay plates were then read on a PerkinElmer EnVision Multilabel Reader, using AlphaScreen® technology, and data were analyzed using a 4-parameter logistic model to calculate IC50 values.

[3] = molecular target: His-tagged KRAS G12D protein (Homo sapiens, UniProt P01116, G12D); assay: KRAS G12D TR-FRET Assay; format: binding
[4] = tested on: Phosphorylation of ERK1/2 in A-427 cells; assay: Phospho-ERK1/2 MSD Assay (A-427 cells); format: cell-based; conditions: Homo sapiens, A-427, 2 h, 2 h treatment, read-out: p-ERK (A427 cells) IC50
Method in brief: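 ERK1/2 phosphorylation measured by Meso Scale whole-cell lysate assay after A-427 cells were exposed to a titration of compound for 2 h at 37 °C.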

Sequence of His-tagged KRAS G12D protein (P01116 1-188 isoform P01116-2 G12D): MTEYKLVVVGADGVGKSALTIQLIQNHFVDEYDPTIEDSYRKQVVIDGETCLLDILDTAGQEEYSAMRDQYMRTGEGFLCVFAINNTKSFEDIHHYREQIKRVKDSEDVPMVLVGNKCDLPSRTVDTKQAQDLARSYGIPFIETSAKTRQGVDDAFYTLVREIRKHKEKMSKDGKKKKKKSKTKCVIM
Sequence of GDP-bound KRAS protein (aa 1-169), containing both G12D and C118A amino acid substitutions (P01116 1-169 isoform P01116-2 G12D/C118A): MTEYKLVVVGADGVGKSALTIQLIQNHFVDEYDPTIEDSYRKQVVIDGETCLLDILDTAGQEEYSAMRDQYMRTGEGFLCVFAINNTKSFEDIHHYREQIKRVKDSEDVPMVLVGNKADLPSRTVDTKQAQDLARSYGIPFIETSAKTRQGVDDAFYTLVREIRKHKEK

SMILES	IC50 [1] [nM]	Avg 2 h Coupled Exchange IC50 [2] [nM]	IC50 [3] [nM]	IC50 [4] [nM]
CCc1c(F)ccc2cc(O)cc(-c3ccc4c(N5CC6CCC(C5)N6)nc(OC[C@@]56CCCN5C[C@H](F)C6)nc4c3)c12 [Example 111]	51	1	2	28
CCc1c(F)ccc2cc(O)cc(-c3ccc4c(N5C[C@@H]6CC[C@H]5CN6)nc(OC[C@@]56CCCN5C[C@H](F)C6)nc4c3)c12 [Example 112, 4-(4-((1S,4S)-2,5-diazabicyclo[2.2.2]octan-2-yl)-2-(((2R,7aS)-2-fluorotetrahydro-1H-pyrrolizin-7a(5H)-yl)methoxy)quinazolin-7-yl)-5-ethyl-6-fluoronaphthalen-2-ol]	90	2	2	37
Oc1cc(-c2ccc3c(N4C[C@@H]5CC[C@H]4CN5)nc(OC[C@@]45CCCN4C[C@H](F)C5)nc3c2)c2c(F)c(F)ccc2c1 [Example 113, 4-(4-((1S,4S)-2,5-diazabicyclo[2.2.2]octan-2-yl)-2-(((2R,7aS)-2-fluorotetrahydro-1H-pyrrolizin-7a(5H)-yl)methoxy)quinazolin-7-yl)-5,6-difluoronaphthalen-2-ol]	453	2	3	102
Nc1ccc(C2CC2)c(-c2c(F)cc3c(N4C[C@H]5CC[C@@H](C4)N5)nc(OC[C@@]45CCCN4C[C@H](F)C5)nc3c2F)c1 [Example 114, 3-(4-((1R,5S)-3,8-diazabicyclo[3.2.1]octan-3-yl)-6,8-difluoro-2-(((2R,7aS)-2-fluorotetrahydro-1H-pyrrolizin-7a(5H)-yl)methoxy)quinazolin-7-yl)-4-cyclopropylaniline]	1420	4	16	985
Nc1ccc(C2CC2)c(-c2c(F)cc3c(N4C[C@@H]5CC[C@H]4CN5)nc(OC[C@@]45CCCN4C[C@H](F)C5)nc3c2F)c1 [Example 115, 3-(4-((1S,4S)-2,5-diazabicyclo[2.2.2]octan-2-yl)-6,8-difluoro-2-(((2R,7aS)-2-fluorotetrahydro-1H-pyrrolizin-7a(5H)-yl)methoxy)quinazolin-7-yl)-4-cyclopropylaniline]	2790	23	32	2740
Nc1cc(-c2c(F)cc3c(N4C[C@H]5CC[C@@H](C4)N5)nc(OC[C@@]45CCCN4C[C@H](F)C5)nc3c2F)c2ccccc2c1 [Example 116, 4-(4-((1R,5S)-3,8-diazabicyclo[3.2.1]octan-3-yl)-6,8-difluoro-2-(((2R,7aS)-2-fluorotetrahydro-1H-pyrrolizin-7a(5H)-yl)methoxy)quinazolin-7-yl)naphthalen-2-amine]	454	5	30	254
Nc1cc(-c2c(F)cc3c(N4C[C@@H]5CC[C@H]4CN5)nc(OC[C@@]45CCCN4C[C@H](F)C5)nc3c2F)c2ccccc2c1 [Example 117, 4-(4-((1S,4S)-2,5-diazabicyclo[2.2.2]octan-2-yl)-6,8-difluoro-2-(((2R,7aS)-2-fluorotetrahydro-1H-pyrrolizin-7a(5H)-yl)methoxy)quinazolin-7-yl)naphthalen-2-amine]	899	7	13	411
Nc1cc(F)c(F)c(-c2c(F)cc3c(N4CC5CCC(C4)N5)nc(OC[C@@]45CCCN4C[C@H](F)C5)nc3c2F)c1 [Example 118]	4950	39	140	6780
CCc1c(F)ccc2cc(O)cc(-c3c(F)cc4c(N5C[C@H]6CCC[C@@H](C5)N6)nc(OC[C@@]56CCCN5C[C@H](F)C6)nc4c3F)c12 [Example 119, 4-(4-((1R,5S)-3,9-diazabicyclo[3.3.1]nonan-3-yl)-6,8-difluoro-2-(((2R,7aS)-2-fluorotetrahydro-1H-pyrrolizin-7a(5H)-yl)methoxy)quinazolin-7-yl)-5-ethyl-6-fluoronaphthalen-2-ol]	276	4	5	156
Oc1cc(-c2c(F)cc3c(N4C[C@H]5CCC[C@@H](C4)N5)nc(OC[C@@]45CCCN4C[C@H](F)C5)nc3c2F)c2ccccc2c1 [Example 120, 4-(4-((1R,5S)-3,9-diazabicyclo[3.3.1]nonan-3-yl)-6,8-difluoro-2-(((2R,7aS)-2-fluorotetrahydro-1H-pyrrolizin-7a(5H)-yl)methoxy)quinazolin-7-yl)naphthalen-2-ol]	1170	4	8	1160
CCc1c(F)ccc2cc(O)cc(-c3c(F)cc4c(N5C[C@H]6C[C@@H](C5)N6)nc(OC[C@@]56CCCN5C[C@H](F)C6)nc4c3F)c12 [Example 121, 4-(4-((1R,5S)-3,6-diazabicyclo[3.1.1]heptan-3-yl)-6,8-difluoro-2-(((2R,7aS)-2-fluorotetrahydro-1H-pyrrolizin-7a(5H)-yl)methoxy)quinazolin-7-yl)-5-ethyl-6-fluoronaphthalen-2-ol]	2850	8	26	5530
Oc1ccc(-c2c(F)cc3c(N4C[C@H]5CC[C@@H](C4)N5)nc(OC[C@@]45CCCN4C[C@H](F)C5)nc3c2F)c2ccccc12 [Example 122, 4-(4-((1R,5S)-3,8-diazabicyclo[3.2.1]octan-3-yl)-6,8-difluoro-2-(((2R,7aS)-2-fluorotetrahydro-1H-pyrrolizin-7a(5H)-yl)methoxy)quinazolin-7-yl)naphthalen-1-ol]	282	5	5	167
CCc1c(F)ccc2cc(O)cc(-c3c(F)cc4c(N5C[C@H]6CC[C@@H](C5)N6)nc(OCC(O)(CC)CC)nc4c3F)c12 [Example 123, 4-(4-((1R,5S)-3,8-diazabicyclo[3.2.1]octan-3-yl)-2-(2-ethyl-2-hydroxybutoxy)-6,8-difluoroquinazolin-7-yl)-5-ethyl-6-fluoronaphthalen-2-ol]	2240	12	12	1990
CCC(O)(CC)COc1nc(N2C[C@H]3CC[C@@H](C2)N3)c2cc(F)c(-c3cc(O)cc4ccc(F)c(F)c34)c(F)c2n1 [Example 124, 4-(4-((1R,5S)-3,8-diazabicyclo[3.2.1]octan-3-yl)-2-(2-ethyl-2-hydroxybutoxy)-6,8-difluoroquinazolin-7-yl)-5,6-difluoronaphthalen-2-ol]	2410	19	34	4320
CC(O)COc1nc(N2C[C@H]3CC[C@@H](C2)N3)c2cc(F)c(-c3cc(O)cc4ccccc34)c(F)c2n1 (stereo partly drawn) [Example 125, 4-(4-((1R,5S)-3,8-diazabicyclo[3.2.1]octan-3-yl)-6,8-difluoro-2-(2-hydroxypropoxy)quinazolin-7-yl)naphthalen-2-ol]	> 10000	39	114	> 10000
CCc1c(F)ccc2cc(O)cc(-c3c(F)cc4c(N5C[C@H]6CC[C@@H](C5)N6)nc(OC[C@@H]5CCC(=O)N5)nc4c3F)c12 [Example 126, (5S)-5-(((4-((1R,5S)-3,8-diazabicyclo[3.2.1]octan-3-yl)-7-(8-ethyl-7-fluoro-3-hydroxynaphthalen-1-yl)-6,8-difluoroquinazolin-2-yl)oxy)methyl) pyrrolidin-2-one]	1220	2	6	388
CCc1c(F)ccc2cc(O)cc(-c3c(F)cc4c(N5C[C@H]6CC[C@@H](C5)N6)nc(OC[C@H]5CCC(=O)N5)nc4c3F)c12 [Example 127, (5R)-5-(((4-((1R,5S)-3,8-diazabicyclo[3.2.1]octan-3-yl)-7-(8-ethyl-7-fluoro-3-hydroxynaphthalen-1-yl)-6,8-difluoroquinazolin-2-yl)oxy)methyl) pyrrolidin-2-one]	7500	3	12	3300
CCc1c(F)ccc2cc(O)cc(-c3c(F)cc4c(N5C[C@H]6CC[C@@H](C5)N6)nc(OCC56CCCN5CC(F)(F)C6)nc4c3F)c12 (stereo partly drawn) [Example 128, 4-(4-((1R,5S)-3,8-diazabicyclo[3.2.1]octan-3-yl)-2-((2,2-difluorotetrahydro-1H-pyrrolizin-7a(5H)-yl)methoxy)-6,8-difluoroquinazolin-7-yl)-5-ethyl-6-fluoronaphthalen-2-ol]	243	4	3	308
CCc1c(F)ccc2cc(O)cc(-c3c(Cl)cc4c(N5C[C@@H]6CC[C@H]5CN6)nc(OC[C@@]56CCCN5C[C@H](F)C6)nc4c3F)c12 [Example 129, 4-(4-((1S,4S)-2,5-diazabicyclo[2.2.2]octan-2-yl)-6-chloro-8-fluoro-2-(((2R,7aS)-2-fluorotetrahydro-1H-pyrrolizin-7a(5H)-yl)methoxy)quinazolin-7-yl)-5-ethyl-6-fluoronaphthalen-2-ol]	83	5	4	29
